17 compounds from patent US20050148627A1, “Benzopyran compounds for use in the treatment and prevention of inflammation related conditions” (priority 2003, published 2005) can be followed below.

For this test, the target named is COX-1 (Homo sapiens, UniProt P23219). Put plainly: biochemical.

Molecules are shown by their SMILES. Where “and” joins values, the source holds several entries; their conditions need not be identical. Equal values may be shown once. Where only a bound is given, the exact number is not on record here.

Chain of COX-1 (P23219 24-599): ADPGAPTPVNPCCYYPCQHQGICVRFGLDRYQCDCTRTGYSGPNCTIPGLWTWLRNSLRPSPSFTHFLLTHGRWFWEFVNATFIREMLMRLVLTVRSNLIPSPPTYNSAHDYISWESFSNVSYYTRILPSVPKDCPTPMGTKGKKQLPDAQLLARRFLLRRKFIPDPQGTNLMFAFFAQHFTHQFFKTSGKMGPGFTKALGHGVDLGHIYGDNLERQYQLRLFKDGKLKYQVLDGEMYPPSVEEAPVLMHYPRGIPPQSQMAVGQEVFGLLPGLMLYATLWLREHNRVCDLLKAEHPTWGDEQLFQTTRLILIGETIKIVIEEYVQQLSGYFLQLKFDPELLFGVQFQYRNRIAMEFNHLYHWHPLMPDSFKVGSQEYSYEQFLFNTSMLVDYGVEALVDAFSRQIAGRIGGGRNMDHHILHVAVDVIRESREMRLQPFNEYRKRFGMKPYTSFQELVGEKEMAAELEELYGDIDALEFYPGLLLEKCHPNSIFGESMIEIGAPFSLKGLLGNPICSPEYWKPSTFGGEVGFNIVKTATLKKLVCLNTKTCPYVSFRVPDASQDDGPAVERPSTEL

For the compound `CCCC(=O)NCc1cc2c(cc1Cl)C=C(C(=O)O)C(C(F)(F)F)O2` (centres unmarked) [Example 16, 7-[(butyrylamino)methyl]-6-chloro-2-(trifluoromethyl)-2H-chromene-3-carboxylic acid], the IC50 – broadly, the point on the concentration scale where inhibition reaches its midpoint – was > 100 µM.

As for `O=C(O)C1=Cc2cc(Cl)c(Cc3ccccc3)cc2O[C@H]1C(F)(F)F` (single isomer, unassigned) [Example 9l], the IC50 is 3.05 µM and 2.38 µM. Take `O=C(O)C1=Cc2ccc(-c3ccco3)cc2OC1C(F)(F)F` (centres unmarked) [Example 12, 7-(2-furyl)-2-(trifluoromethyl)-2H-chromene-3-carboxylic acid]: the IC50 is > 100 µM.

Regarding `O=C(O)C1=Cc2cc(Br)c(Cc3ccccc3)cc2OC1C(F)(F)F` (centres unmarked) [Example 41, 7-benzyl-6-bromo-2-(trifluoromethyl)-2H-chromene-3-carboxylic acid], the IC50 was 14.6 µM and 12.9 µM.

For the compound `CCCCN(CC)c1cc2c(cc1Cl)C=C(C(=O)O)C(C(F)(F)F)O2` (centres unmarked) [Example 8h, 7-[butyl(ethyl)amino]-6-chloro-2-(trifluoromethyl)-2H-chromene-3-carboxylic acid], the IC50 is > 100 µM.

As for `Cc1c(OCC(C)(C)C)c(Cl)cc2c1OC(C(F)(F)F)C(C(=O)O)=C2` (centres unmarked) [Example 3g, 6-chloro-8-methyl-7-(neopentyloxy)-2-(trifluoromethyl)-2H-chromene-3-carboxylic acid], the IC50 was 74.4 µM and 81.2 µM. In the case of `COc1c(Cl)cc2c(c1OC)OC(C(F)(F)F)C(C(=O)O)=C2` (centres unmarked) [Example 4b, 6-chloro-7,8-dimethoxy-2-(trifluoromethyl)-2H-chromene-3-carboxylic acid] it was > 500 µM; in that of `O=C(O)C1=Cc2cc(Cl)c(NCc3ccccc3)cc2OC1C(F)(F)F` (centres unmarked) [Example 8k, 7-(benzylamino)-6-chloro-2-(trifluoromethyl)-2H-chromene-3-carboxylic acid], > 100 µM; in that of `CSc1cc(Cl)cc2c1OC(C(F)(F)F)C(C(=O)O)=C2` (centres unmarked) [Example 44, 6-chloro-8-(methylthio)-2-(trifluoromethyl)-2H-chromene-3-carboxylic acid], 0.185 µM and 0.12 µM and < 0.137 µM. In the case of `O=C(O)C1=Cc2cc(Cl)c(OCc3ccccc3)cc2OC1C(F)(F)F` (centres unmarked) [Example 2f, 7-(benzyloxy)-6-chloro-2-(trifluoromethyl)-2H-chromene-3-carboxylic acid] it was > 100 µM; in that of `O=C(O)C1=Cc2cc(Cl)c(N3CC=CCC3)cc2OC1C(F)(F)F` (centres unmarked) [Example 8e, 6-chloro-7-(3,6-dihydropyridin-1(2H)-yl)-2-(trifluoromethyl)-2H-chromene-3-carboxylic acid], > 100 µM and 130 µM.

`O=C(O)C1=Cc2cc(Cl)c(Cc3ccccc3Cl)cc2OC1C(F)(F)F` (centres unmarked) [Example 9n, 6-chloro-7-(2-chlorobenzyl)-2-(trifluoromethyl)-2H-chromene-3-carboxylic acid] registered an IC50 of 0.425 µM. For `CNc1c(Cl)cc2c(c1Cl)OC(C(F)(F)F)C(C(=O)O)=C2` (centres unmarked) [Example 38b, 6,8-dichloro-7-(methylamino)-2-(trifluoromethyl)-2H-chromene-3-carboxylic acid], the IC50 is > 100 µM.

With `CCCCOc1cccc2c1OC(C(F)(F)F)C(C(=O)O)=C2` (centres unmarked) [Example 25f, 8-butoxy-2-(trifluoromethyl)-2H-chromene-3-carboxylic acid], the IC50 was > 100 µM.

Take `C=Cc1cc(OC(F)(F)F)cc2c1OC(C(F)(F)F)C(C(=O)O)=C2` (centres unmarked) [Example 21n, 6-(trifluoromethoxy)-2-(trifluoromethyl)-8-vinyl-2H-chromene-3-carboxylic acid]: the IC50 is < 0.137 µM. In the case of `Cc1ccc(Cc2cc3c(cc2Cl)C=C(C(=O)O)C(C(F)(F)F)O3)c(C)c1Cl` (centres unmarked) [Example 9u, 6-chloro-7-(3-chloro-2,4-dimethylbenzyl)-2-(trifluoromethyl)-2H-chromene-3-carboxylic acid] it was 5.52 µM; in that of `Cc1cc(Cl)c(C)c2c1OC(C(F)(F)F)C(C(=O)O)=C2` (centres unmarked) [Example 105, 6-chloro-5,8-dimethyl-2-(trifluoromethyl)-2H-chromene-3-carboxylic acid], 3.32 µM and 2 µM.
